Source: PubChem BioAssay (NCI)
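Exposure lasted 48 hours, with cells grown in 96-well plates and compounds tested at five concentrations. TGI denotes the concentration required for complete inhibition of growth.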

Key:
Test in all cases: inhibition of tumour cell growth, NCI panel, 48 h
SNB-75 CNS = tested on: SNB-75 CNS
UACC-62 melanoma = tested on: UACC-62 melanoma
HOP-62 NSCLC = tested on: HOP-62 NSCLC
SK-MEL-5 melanoma = tested on: SK-MEL-5 melanoma
LOX IMVI melanoma = tested on: LOX IMVI melanoma
OVCAR-4 ovarian = tested on: OVCAR-4 ovarian
TK-10 renal = tested on: TK-10 renal
MDA-MB-231 breast = tested on: MDA-MB-231 breast
CAKI-1 renal = tested on: CAKI-1 renal
SF-268 CNS = tested on: SF-268 CNS
NCI-H226 lung = tested on: NCI-H226 lung
MOLT-4 leukemia = tested on: MOLT-4 leukemia
MALME-3M melanoma = tested on: MALME-3M melanoma
HCT-116 colon = tested on: HCT-116 colon
RXF 393 renal = tested on: RXF 393 renal
SW-620 colon = tested on: SW-620 colon
RPMI-8226 leukemia = tested on: RPMI-8226 leukemia
OVCAR-3 ovarian = tested on: OVCAR-3 ovarian
HCT-15 colon = tested on: HCT-15 colon
T-47D breast = tested on: T-47D breast
A498 renal = tested on: A498 renal
HT29 colon = tested on: HT29 colon
SK-OV-3 ovarian = tested on: SK-OV-3 ovarian
HL-60(TB) leukemia = tested on: HL-60(TB) leukemia
CCRF-CEM leukemia = tested on: CCRF-CEM leukemia
KM12 colon = tested on: KM12 colon
EKVX NSCLC = tested on: EKVX NSCLC
786-0 renal = tested on: 786-0 renal
HOP-92 NSCLC = tested on: HOP-92 NSCLC
MDA-MB-435 = tested on: MDA-MB-435
MCF7 breast = tested on: MCF7 breast
SK-MEL-2 melanoma = tested on: SK-MEL-2 melanoma
COLO 205 colon = tested on: COLO 205 colon
NCI/ADR-RES ovarian = tested on: NCI/ADR-RES ovarian
M14 melanoma = tested on: M14 melanoma
SK-MEL-28 melanoma = tested on: SK-MEL-28 melanoma
OVCAR-5 ovarian = tested on: OVCAR-5 ovarian
OVCAR-8 ovarian = tested on: OVCAR-8 ovarian
U251 CNS = tested on: U251 CNS
SN12C renal = tested on: SN12C renal
IGROV1 ovarian = tested on: IGROV1 ovarian
NCI-H460 lung = tested on: NCI-H460 lung
NCI-H522 lung = tested on: NCI-H522 lung
PC-3 prostate = tested on: PC-3 prostate
A549 NSCLC = tested on: A549 NSCLC
NCI-H23 lung = tested on: NCI-H23 lung
SF-539 CNS = tested on: SF-539 CNS
DU-145 prostate = tested on: DU-145 prostate
BT-549 breast = tested on: BT-549 breast
SR leukemia = tested on: SR leukemia
MDA-N = tested on: MDA-N
K-562 leukemia = tested on: K-562 leukemia
UO-31 renal = tested on: UO-31 renal
UACC-257 melanoma = tested on: UACC-257 melanoma
SF-295 CNS = tested on: SF-295 CNS
ACHN renal = tested on: ACHN renal
HS 578T breast = tested on: HS 578T breast
SNB-19 CNS = tested on: SNB-19 CNS

`N#CC(C#N)=Cc1c[nH]c(=O)[nH]c1=O` was tested, and the TGI (SNB-75 CNS) was greater than 100 µM, the TGI (UACC-62 melanoma) was greater than 100 µM and the TGI (HOP-62 NSCLC) was greater than 100 µM. The TGI (SK-MEL-5 melanoma) was greater than 100 µM, the TGI (LOX IMVI melanoma) was greater than 100 µM and the TGI (OVCAR-4 ovarian) was greater than 100 µM. For the same molecule, the TGI (TK-10 renal) was greater than 100 µM, the TGI (MDA-MB-231 breast) was greater than 100 µM and the TGI (CAKI-1 renal) was greater than 100 µM. It also gave a TGI (SF-268 CNS) greater than 100 µM, a TGI (NCI-H226 lung) greater than 100 µM and a TGI (MOLT-4 leukemia) greater than 100 µM. The TGI (MALME-3M melanoma) was greater than 100 µM, the TGI (HCT-116 colon) was greater than 100 µM and the TGI (RXF 393 renal) was greater than 100 µM. The TGI (SW-620 colon) was greater than 100 µM, the TGI (RPMI-8226 leukemia) was greater than 100 µM and the TGI (OVCAR-3 ovarian) was greater than 100 µM. It also gave a TGI (HCT-15 colon) greater than 100 µM, a TGI (T-47D breast) greater than 100 µM and a TGI (A498 renal) greater than 100 µM. The TGI (HT29 colon) was greater than 100 µM, the TGI (SK-OV-3 ovarian) was greater than 100 µM and the TGI (HL-60(TB) leukemia) was greater than 100 µM. It also gave a TGI (CCRF-CEM leukemia) of 63.9 µM, a TGI (KM12 colon) greater than 100 µM and a TGI (EKVX NSCLC) greater than 100 µM. For the same molecule, the TGI (786-0 renal) was greater than 100 µM, the TGI (HOP-92 NSCLC) was greater than 100 µM and the TGI (MDA-MB-435) was greater than 100 µM. It also gave a TGI (MCF7 breast) greater than 100 µM, a TGI (SK-MEL-2 melanoma) greater than 100 µM and a TGI (COLO 205 colon) greater than 100 µM. For the same molecule, the TGI (NCI/ADR-RES ovarian) was greater than 100 µM, the TGI (M14 melanoma) was greater than 100 µM and the TGI (SK-MEL-28 melanoma) was greater than 100 µM. It also gave a TGI (OVCAR-5 ovarian) greater than 100 µM, a TGI (OVCAR-8 ovarian) greater than 100 µM and a TGI (U251 CNS) greater than 100 µM. For the same molecule, the TGI (SN12C renal) was greater than 100 µM, the TGI (IGROV1 ovarian) was greater than 100 µM and the TGI (NCI-H460 lung) was greater than 100 µM. For the same molecule, the TGI (NCI-H522 lung) was greater than 100 µM, the TGI (PC-3 prostate) was greater than 100 µM and the TGI (A549 NSCLC) was greater than 100 µM. For the same molecule, the TGI (NCI-H23 lung) was greater than 100 µM, the TGI (SF-539 CNS) was greater than 100 µM and the TGI (DU-145 prostate) was greater than 100 µM. For the same molecule, the TGI (BT-549 breast) was greater than 100 µM, the TGI (SR leukemia) was greater than 100 µM and the TGI (MDA-N) was greater than 100 µM. For the same molecule, the TGI (K-562 leukemia) was greater than 100 µM, the TGI (UO-31 renal) was greater than 100 µM and the TGI (UACC-257 melanoma) was greater than 100 µM. The TGI (SF-295 CNS) was greater than 100 µM, the TGI (ACHN renal) was greater than 100 µM and the TGI (HS 578T breast) was greater than 100 µM. For the same molecule, the TGI (SNB-19 CNS) was greater than 100 µM.

`CCCCCCCCCCCC[C@@H](O)[C@H]1CC[C@H]([C@H]2CC[C@H]([C@H](O)CC[C@H](O)CCCCCCCC3=C[C@H](C)OC3=O)O2)O1` showed a TGI (SNB-75 CNS) of 3.77 µM, a TGI (UACC-62 melanoma) of 2.58 µM and a TGI (HOP-62 NSCLC) of 2.96 µM. For the same molecule, the TGI (SK-MEL-5 melanoma) was 4.48 µM, the TGI (LOX IMVI melanoma) was 2.76 µM and the TGI (TK-10 renal) was 2.65 µM. For the same molecule, the TGI (MDA-MB-231 breast) was 6.36 µM, the TGI (CAKI-1 renal) was 6.81 µM and the TGI (SF-268 CNS) was 3.32 µM. The TGI (NCI-H226 lung) was 3.48 µM, the TGI (MOLT-4 leukemia) was greater than 10 µM and the TGI (HCT-116 colon) was 4.42 µM. For the same molecule, the TGI (RXF 393 renal) was 5.9 µM, the TGI (SW-620 colon) was 5.82 µM and the TGI (RPMI-8226 leukemia) was 9.49 µM. The TGI (OVCAR-3 ovarian) was 2.95 µM, the TGI (HCT-15 colon) was 4.33 µM and the TGI (T-47D breast) was greater than 10 µM. The TGI (A498 renal) was 4.94 µM, the TGI (HT29 colon) was 3.25 µM and the TGI (HL-60(TB) leukemia) was 4.17 µM. It also gave a TGI (CCRF-CEM leukemia) of 4.74 µM, a TGI (KM12 colon) of 2.9 µM and a TGI (EKVX NSCLC) of 2.82 µM. For the same molecule, the TGI (786-0 renal) was 5.66 µM, the TGI (HOP-92 NSCLC) was 4.23 µM and the TGI (MDA-MB-435) was 4.05 µM. For the same molecule, the TGI (MCF7 breast) was 2.72 µM, the TGI (SK-MEL-2 melanoma) was 2.93 µM and the TGI (COLO 205 colon) was 3.94 µM. The TGI (NCI/ADR-RES ovarian) was 3.8 µM, the TGI (M14 melanoma) was 3.11 µM and the TGI (SK-MEL-28 melanoma) was 3.6 µM. The TGI (OVCAR-5 ovarian) was 3.25 µM, the TGI (OVCAR-8 ovarian) was 4 µM and the TGI (U251 CNS) was 5.32 µM. It also gave a TGI (SN12C renal) of 8.13 µM, a TGI (IGROV1 ovarian) of 3.2 µM and a TGI (NCI-H460 lung) of 2.82 µM. It also gave a TGI (PC-3 prostate) of 2.9 µM, a TGI (A549 NSCLC) of 4.42 µM and a TGI (NCI-H23 lung) of 2.31 µM. For the same molecule, the TGI (SF-539 CNS) was 3.12 µM, the TGI (DU-145 prostate) was greater than 10 µM and the TGI (BT-549 breast) was 1.02 µM. The TGI (SR leukemia) was greater than 10 µM, the TGI (MDA-N) was 4.49 µM and the TGI (K-562 leukemia) was greater than 10 µM. It also gave a TGI (UO-31 renal) of 2.16 µM, a TGI (UACC-257 melanoma) of 2.35 µM and a TGI (SF-295 CNS) of 3.01 µM. It also gave a TGI (ACHN renal) of 2.45 µM, a TGI (HS 578T breast) of 5.48 µM and a TGI (SNB-19 CNS) of 2.62 µM.

`COc1ccc(C(=O)/C=C/c2ccc(Oc3cc(C(=O)/C=C/c4ccc(O)cc4)c(O)cc3OC)cc2)c(O)c1` showed a TGI (SNB-75 CNS) of 18.2 µM, a TGI (UACC-62 melanoma) of 11.2 µM and a TGI (HOP-62 NSCLC) of 49.2 µM. The TGI (SK-MEL-5 melanoma) was 18.7 µM, the TGI (LOX IMVI melanoma) was 5.05 µM and the TGI (OVCAR-4 ovarian) was 18 µM. It also gave a TGI (TK-10 renal) of 58 µM, a TGI (MDA-MB-231 breast) of 9.8 µM and a TGI (CAKI-1 renal) of 68.4 µM. It also gave a TGI (SF-268 CNS) greater than 100 µM, a TGI (MALME-3M melanoma) of 59.8 µM and a TGI (HCT-116 colon) of 3.96 µM. The TGI (RXF 393 renal) was 6.96 µM, the TGI (SW-620 colon) was greater than 100 µM and the TGI (RPMI-8226 leukemia) was 4.7 µM. The TGI (OVCAR-3 ovarian) was 32.2 µM, the TGI (HCT-15 colon) was 6.62 µM and the TGI (T-47D breast) was 66.9 µM. The TGI (A498 renal) was 6.26 µM, the TGI (HT29 colon) was 5.13 µM and the TGI (SK-OV-3 ovarian) was 96.4 µM. The TGI (HL-60(TB) leukemia) was greater than 100 µM, the TGI (CCRF-CEM leukemia) was greater than 100 µM and the TGI (KM12 colon) was 7.83 µM. For the same molecule, the TGI (EKVX NSCLC) was 23.5 µM, the TGI (786-0 renal) was 7.9 µM and the TGI (HOP-92 NSCLC) was 38.4 µM. For the same molecule, the TGI (MDA-MB-435) was greater than 100 µM, the TGI (MCF7 breast) was greater than 100 µM and the TGI (SK-MEL-2 melanoma) was 46 µM. For the same molecule, the TGI (COLO 205 colon) was 15.4 µM, the TGI (NCI/ADR-RES ovarian) was 11 µM and the TGI (M14 melanoma) was 61.2 µM. It also gave a TGI (SK-MEL-28 melanoma) of 8.15 µM, a TGI (OVCAR-5 ovarian) of 26 µM and a TGI (OVCAR-8 ovarian) of 9.83 µM. For the same molecule, the TGI (U251 CNS) was greater than 100 µM, the TGI (SN12C renal) was greater than 100 µM and the TGI (IGROV1 ovarian) was 6.13 µM. It also gave a TGI (NCI-H460 lung) greater than 100 µM, a TGI (NCI-H522 lung) of 10.5 µM and a TGI (PC-3 prostate) greater than 100 µM. It also gave a TGI (A549 NSCLC) greater than 100 µM, a TGI (NCI-H23 lung) of 18.1 µM and a TGI (SF-539 CNS) of 5.26 µM. It also gave a TGI (DU-145 prostate) greater than 100 µM, a TGI (BT-549 breast) greater than 100 µM and a TGI (SR leukemia) of 5.73 µM. The TGI (MDA-N) was greater than 100 µM, the TGI (K-562 leukemia) was greater than 100 µM and the TGI (UO-31 renal) was 11.3 µM. For the same molecule, the TGI (UACC-257 melanoma) was greater than 100 µM, the TGI (SF-295 CNS) was 40.2 µM and the TGI (ACHN renal) was 6.85 µM. The TGI (HS 578T breast) was greater than 100 µM and the TGI (SNB-19 CNS) was greater than 100 µM.
